The text below walks through data of ChEMBL document CHEMBL4007467, “Effects of 6-paradol, an unsaturated ketone from gingers, on cytochrome P450-mediated drug metabolism” (Bioorg Med Chem Lett, 2017).

Common to all, as to type: ADME
For data set [1], the target named is T1, CYP2C19 (Homo sapiens, UniProt P33261). Kind of data set: Inhibition of CYP2C19 in human liver microsomes assessed as enzyme-mediated metabolite formation at 10 uM using (S)-mephenytoin as substrate preincubated for 20 mins followed by substrate addition measured after 30 mins in presence of NADPH by LC-MS/MS analysis relative to control. The arrangement: scale not given: the % may be the effect or the level left. The note with it: probe (S)-mephenytoin, read-out: Activity. (Liver microsomes are a subcellular fraction often used to study metabolism.)

Another data set deals with Cytochrome P450 2C9 (Homo sapiens, UniProt P11712). Kind of data set: Inhibition of CYP2C9 in human liver microsomes assessed as enzyme-mediated metabolite formation using diclofenac as substrate incubated for 5 mins followed by NADPH addition measured after 30 mins by LC-MS/MS analysis.
A further data set has as its target CYP3A4 (Homo sapiens, UniProt P08684). Kind of data set: Inhibition of CYP3A4 in human liver microsomes assessed as enzyme-mediated metabolite formation at 0.1 uM using testosterone as substrate incubated for 5 mins followed by NADPH addition measured after 30 mins by LC-MS/MS analysis relative to control. More on the design: scale not given: the % may be the effect or the level left. The note with it: probe testosterone, read-out: Activity.

Another data set addresses Cytochrome P450 2C19 (Homo sapiens, UniProt P33261). In words: Inhibition of CYP2C19 in human liver microsomes assessed as enzyme-mediated metabolite formation using (S)-mephenytoin as substrate incubated for 5 mins followed by NADPH addition measured after 30 mins by LC-MS/MS analysis.
The target in data set [2] is T2, CYP2B6 (Homo sapiens, UniProt P20813).
T2 sequence (P20813 whole entry): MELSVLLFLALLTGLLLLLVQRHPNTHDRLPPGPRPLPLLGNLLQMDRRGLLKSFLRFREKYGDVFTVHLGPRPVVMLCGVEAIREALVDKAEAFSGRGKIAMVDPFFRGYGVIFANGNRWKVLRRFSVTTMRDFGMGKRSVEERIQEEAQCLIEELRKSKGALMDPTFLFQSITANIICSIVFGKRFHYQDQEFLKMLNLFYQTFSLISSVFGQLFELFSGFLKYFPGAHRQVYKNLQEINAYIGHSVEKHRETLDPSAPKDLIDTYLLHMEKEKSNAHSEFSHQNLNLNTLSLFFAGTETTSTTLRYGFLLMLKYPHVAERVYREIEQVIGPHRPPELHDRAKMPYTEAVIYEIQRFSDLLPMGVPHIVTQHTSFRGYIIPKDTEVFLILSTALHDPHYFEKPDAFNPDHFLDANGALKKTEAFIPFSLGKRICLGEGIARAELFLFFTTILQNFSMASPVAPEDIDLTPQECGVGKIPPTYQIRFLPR
Kind of data set: Inhibition of CYP2B6 in human liver microsomes assessed as enzyme-mediated metabolite formation at 30 uM using bupropion as substrate incubated for 5 mins followed by NADPH addition measured after 30 mins by LC-MS/MS analysis relative to control. The arrangement: scale not given: the % may be the effect or the level left. The conditions noted are these: probe bupropion, read-out: Activity.

The target of a further data set is T3, CYP2C8 (Homo sapiens, UniProt P10632).
T3 sequence (P10632 whole entry): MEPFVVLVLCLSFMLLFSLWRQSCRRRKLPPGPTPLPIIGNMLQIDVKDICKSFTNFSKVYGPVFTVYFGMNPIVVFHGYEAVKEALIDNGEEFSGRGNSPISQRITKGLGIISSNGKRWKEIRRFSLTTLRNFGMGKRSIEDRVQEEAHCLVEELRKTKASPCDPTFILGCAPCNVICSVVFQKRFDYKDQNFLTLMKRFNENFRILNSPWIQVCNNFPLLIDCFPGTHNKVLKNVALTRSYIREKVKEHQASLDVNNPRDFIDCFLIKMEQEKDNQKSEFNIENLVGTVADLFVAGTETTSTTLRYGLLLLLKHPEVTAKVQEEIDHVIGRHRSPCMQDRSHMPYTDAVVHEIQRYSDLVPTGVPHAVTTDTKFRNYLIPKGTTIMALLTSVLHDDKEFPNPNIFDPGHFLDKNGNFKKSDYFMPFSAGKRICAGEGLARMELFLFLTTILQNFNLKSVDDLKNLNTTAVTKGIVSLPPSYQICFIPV
In words: Inhibition of CYP2C8 in human liver microsomes assessed as enzyme-mediated metabolite formation at 1 uM using paclitaxel as substrate incubated for 5 mins followed by NADPH addition measured after 30 mins by LC-MS/MS analysis relative to control. The arrangement: scale not given: the % may be the effect or the level left. The note with it: probe paclitaxel, read-out: Activity.

Data set [3] concerns the target T2, CYP2B6. In words: Inhibition of CYP2B6 in human liver microsomes assessed as enzyme-mediated metabolite formation at 10 uM using bupropion as substrate incubated for 5 mins followed by NADPH addition measured after 30 mins by LC-MS/MS analysis relative to control. The arrangement: scale not given: the % may be the effect or the level left. The note with it: probe bupropion, read-out: Activity.

The next data set deals with T4, Cytochrome P450 2A6 (Homo sapiens, UniProt P11509).
T4 sequence (P11509 whole entry): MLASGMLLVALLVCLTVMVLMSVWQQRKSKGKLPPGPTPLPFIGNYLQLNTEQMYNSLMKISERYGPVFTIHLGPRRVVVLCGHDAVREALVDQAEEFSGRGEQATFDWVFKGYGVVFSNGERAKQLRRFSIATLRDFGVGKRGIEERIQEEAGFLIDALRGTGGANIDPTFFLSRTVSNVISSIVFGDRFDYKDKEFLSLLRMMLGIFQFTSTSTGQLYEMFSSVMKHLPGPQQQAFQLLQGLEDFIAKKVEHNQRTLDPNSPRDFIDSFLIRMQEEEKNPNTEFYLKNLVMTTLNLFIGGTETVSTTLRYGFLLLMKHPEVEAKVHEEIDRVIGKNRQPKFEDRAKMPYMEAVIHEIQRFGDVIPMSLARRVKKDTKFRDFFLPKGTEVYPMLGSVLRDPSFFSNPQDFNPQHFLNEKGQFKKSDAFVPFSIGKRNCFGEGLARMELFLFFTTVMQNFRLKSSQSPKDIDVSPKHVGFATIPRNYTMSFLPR
Kind of data set: Inhibition of CYP2A6 in human liver microsomes using coumarin as substrate preincubated for 20 mins followed by substrate addition measured after 30 mins in presence of NADPH by LC-MS/MS analysis.

Data set [4] deals with T1, CYP2C19. In words: Inhibition of CYP2C19 in human liver microsomes assessed as enzyme-mediated metabolite formation at 30 uM using (S)-mephenytoin as substrate preincubated for 20 mins followed by substrate addition measured after 30 mins in presence of NADPH by LC-MS/MS analysis relative to control. The arrangement: scale not given: the % may be the effect or the level left. The note with it: probe (S)-mephenytoin, read-out: Activity.

The target of another data set is T5, Cytochrome P450 2C8 (Homo sapiens, UniProt P10632).
T5 sequence (P10632 whole entry): T3 sequence (P10632 whole entry)
In words: Inhibition of CYP2C8 in human liver microsomes assessed as enzyme-mediated metabolite formation using paclitaxel as substrate incubated for 5 mins followed by NADPH addition measured after 30 mins by LC-MS/MS analysis.

T1 sequence (P33261 whole entry): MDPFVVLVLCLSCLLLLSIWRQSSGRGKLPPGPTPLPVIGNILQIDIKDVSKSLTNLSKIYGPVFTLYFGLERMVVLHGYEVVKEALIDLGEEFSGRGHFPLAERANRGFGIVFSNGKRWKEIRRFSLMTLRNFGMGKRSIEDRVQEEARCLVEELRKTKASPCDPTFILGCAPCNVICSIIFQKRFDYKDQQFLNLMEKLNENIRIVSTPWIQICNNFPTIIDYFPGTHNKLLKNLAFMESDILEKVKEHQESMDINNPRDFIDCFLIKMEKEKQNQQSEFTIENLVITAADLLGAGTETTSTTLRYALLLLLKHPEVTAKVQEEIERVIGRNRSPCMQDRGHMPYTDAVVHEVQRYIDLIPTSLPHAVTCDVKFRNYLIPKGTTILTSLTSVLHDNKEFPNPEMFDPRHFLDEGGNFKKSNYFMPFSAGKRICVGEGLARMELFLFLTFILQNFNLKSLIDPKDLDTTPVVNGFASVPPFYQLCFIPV
Chain of Cytochrome P450 2C9 (P11712 whole entry): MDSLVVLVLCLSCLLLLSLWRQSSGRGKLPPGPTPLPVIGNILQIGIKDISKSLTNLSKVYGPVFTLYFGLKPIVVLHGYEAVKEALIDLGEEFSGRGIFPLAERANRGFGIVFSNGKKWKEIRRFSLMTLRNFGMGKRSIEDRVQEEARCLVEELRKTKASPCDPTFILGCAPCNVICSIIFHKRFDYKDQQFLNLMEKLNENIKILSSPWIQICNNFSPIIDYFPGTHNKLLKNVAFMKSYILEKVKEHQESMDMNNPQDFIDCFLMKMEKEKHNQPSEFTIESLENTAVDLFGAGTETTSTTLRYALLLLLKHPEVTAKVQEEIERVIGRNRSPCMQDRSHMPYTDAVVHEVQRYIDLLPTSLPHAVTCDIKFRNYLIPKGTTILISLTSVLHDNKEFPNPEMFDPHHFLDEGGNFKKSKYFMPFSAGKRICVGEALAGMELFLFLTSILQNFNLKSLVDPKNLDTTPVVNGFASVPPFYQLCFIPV
Chain of Cytochrome P450 2C19 (P33261 whole entry): as the sequence (P33261 whole entry) above
Chain of CYP3A4 (P08684 whole entry): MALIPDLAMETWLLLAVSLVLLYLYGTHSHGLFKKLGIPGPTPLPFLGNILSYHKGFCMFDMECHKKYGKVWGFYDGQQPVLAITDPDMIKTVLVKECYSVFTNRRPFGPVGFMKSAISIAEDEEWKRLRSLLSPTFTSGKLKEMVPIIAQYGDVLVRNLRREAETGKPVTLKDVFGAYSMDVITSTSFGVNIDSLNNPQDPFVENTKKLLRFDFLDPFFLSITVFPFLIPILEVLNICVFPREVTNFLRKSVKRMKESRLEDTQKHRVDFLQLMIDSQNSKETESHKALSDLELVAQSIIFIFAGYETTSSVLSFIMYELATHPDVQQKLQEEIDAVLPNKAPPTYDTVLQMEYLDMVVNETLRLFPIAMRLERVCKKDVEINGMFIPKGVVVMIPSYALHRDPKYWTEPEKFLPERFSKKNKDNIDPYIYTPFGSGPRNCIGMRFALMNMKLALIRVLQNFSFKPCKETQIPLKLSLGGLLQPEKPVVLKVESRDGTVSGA

In the case of `CCCCCCCC(=O)CCc1ccc(O)c(OC)c1`, the activity at 0.5 h, 10 µM was 44.5% on CYP2C19 [1] and 53.9% at CYP2B6 [3]. Besides, the IC50 on Cytochrome P450 2C9 is 13.6 µM; at Cytochrome P450 2C19, 17.6 µM; at Cytochrome P450 2A6, more than 30 µM; at Cytochrome P450 2C8, 5.1 µM. For the same molecule, on CYP3A4, the activity at 0.5 h, 0.1 µM was 100%. Further, the activity at 0.5 h, 30 µM on CYP2B6 [2] came to 37%; at CYP2C19 [4], 36.8%. Also, the activity at 0.5 h, 1 µM at CYP2C8 worked out at 68.7%.

As usually defined, the IC50 is the concentration needed to halve the response being measured.
